In US20250109127A1, “METHODS OF USE OF PHENOXYPROPYLAMINE COMPOUNDS TO TREAT DEPRESSION” (Minerva Neurosciences, Inc., priority 2013, published 2025):
“Also recorded” adds a separate entry of the source. Counter-ions that a name gives are not always drawn.

Columns and labels:
[1] = test system: animals exposed to chronic mild stress; assay: Chronic mild stress (CMS) model, consumption of 1% sucrose solution; format: in vivo, rat; details: for effect on sucrose intake one week after cessation of treatments: stressed animals
Experimental: Male Wistar rats (Charles River, Germany) were brought into the laboratory one month before the start of the experiment. Except as described below, the animals were singly housed with food and water freely available, and were maintained on a 12-h light/dark cycle, in a constant temperature (22±2° C.) and humidity (50±5%) conditions.
After a period of 2 weeks of adaptation to laboratory and housing conditions, the animals were first trained to consume a 1% sucrose solution; training consisted of nine 1 h baseline tests in which sucrose was presented, in the home cage, following 14 h food and water deprivation; the sucrose intake was measured by weighing pre-weighed bottles containing the sucrose solution, at the end of the test. Subsequently, the sucrose consumption was monitored, under similar conditions, at weekly intervals throughout the whole experiment.
On the basis of their sucrose intakes in the final baseline test, the animals were divided into two matched groups. One group of animals was subjected to the chronic mild stress procedure for a period of 8 consecutive weeks. Each week of stress regime consisted of: two periods of food or water deprivation, two periods of 45 degree cage tilt, two periods of intermittent illumination (lights on and off every 2 h), two periods of soiled cage (250 ml water in sawdust bedding), one period of paired housing, two periods of low intensity stroboscopic illumination (150 flashes/min), and three periods of no stress. All stressors were 10-14 h of duration and were applied individually and continuously, day and night. Control animals were housed in separate rooms and had no contact with the stressed animals. They were deprived of food and water for the 14 h preceding each sucrose test, but otherwise food and water were freely available in the home cage.
On the basis of their sucrose intakes following initial 2 weeks of stress, both the stressed and the control groups were each divided further into matched subgroups (n=8), and for subsequent five weeks they received once daily intraperitoneal injections of vehicle (0.5% hydroxypropylmethylcellulose, 1 ml/kg), SON-117 (0.001, 0.01, 0.1 and 1 mg/kg) or imipramine (10 mg/kg) as the reference treatment. The drugs were administered at approx. 10:00 AM and the weekly sucrose tests were carried out 24 h following the last drug injections. After five weeks all treatments were terminated and one additional sucrose test was carried out after one week of withdrawal. Stress was continued throughout the period of treatment and withdrawal.
(§1) After completion of the administration and withdrawal period, all control and stressed animals were placed in an open field (100 cm in diameter, 35 cm high) and allowed to explore two identical objects (cylinder-shaped object with walls painted white, 7 cm in diameter, 11 cm high) for the time required to complete 15 s of exploration of either object. For the retention trial conducted one hour later, one of the objects presented previously was replaced with a novel object (prism-shaped object with walls painted black, 5 cm wide, 14 cm high). Rats were returned to the open field for 5 min and the duration of exploration (i.e. sitting in close proximity to the objects, sniffing or touching them) of each object was measured separately by a trained observer. The data were calculated according to the following formula: [time of novel object exploration divided by time of novel plus familiar object exploration multiplied by 100]. The CMS and NOR data were analyzed by multiple analyses of variance with three between-subjects factors (stress/control, drug treatments and intakes in successive sucrose tests). The Fisher's LSD test was used for the post-hoc comparisons of means.

[2] = test system: animals exposed to chronic mild stress; assay: Novel object recognition test after CMS and treatment withdrawal; format: in vivo, rat
Excerpt: as §1

[3] = test system: sleep EEG parameters; assay: Polysomnography / sleep EEG study; format: in vivo, human
Experimental: In this study, certain pharmacodynamic sleep parameters predictive of antidepressant activity were monitored and measured. […] Three doses of SON-117 were tested (1 mg, 3 mg, 7.5 mg). […] In an embodiment, SON-117 affected sleep. In an embodiment, SON-117 affected REM sleep.
[…] subjects were tested in a sleep study, where 23 subjects were dosed with SON-117 in amounts of 1 mg up to 7.5 mg; 12 were given a placebo; and 8 were given escitalopram at a dose of 20 mg. Sleep was recorded in individual sound-attenuated and comfortably furnished bedrooms. During bedtime hours subjects were recumbent and the lights are turned off. The polysomnographic montage consisted of 4 EEG channels (C3A2, O1A2, C4A1, and O2A1), bilateral electro-oculograms, and 2 submental electromyograms. The different sleep parameters were derived with the Hypnos software from the visual scoring of the recordings at 30 sec epochs according to Rechtschaffen and Kales (1968) rules. Sleep continuity parameters comprise both sleep initiation and sleep maintenance variables. Sleep architecture parameters, which include REM sleep parameters, comprise stages distribution variables documenting duration and proportion of the different sleep stages and sleep profile variables that provide an outline on the time course of the different sleep stages during the recording period. All night sleep EEG spectral analysis was carried out on the C3-A2 derivation by means a fast Fourrier transform algorithm. Epoch length was 2 seconds at a sampling rate of 256 Hz and truncating error was reduced by applying a Hanning window. Sleep visual scores of each 30-second epoch was synchronised with power density values in order to allow the analysis of power density within in specific period of time such as REM and non REM sleep.

[4] = biological target: T1, 5-HT1A (Homo sapiens, UniProt P08908); assay: Receptor binding, 5-HT1A
T1 sequence (P08908 1-422): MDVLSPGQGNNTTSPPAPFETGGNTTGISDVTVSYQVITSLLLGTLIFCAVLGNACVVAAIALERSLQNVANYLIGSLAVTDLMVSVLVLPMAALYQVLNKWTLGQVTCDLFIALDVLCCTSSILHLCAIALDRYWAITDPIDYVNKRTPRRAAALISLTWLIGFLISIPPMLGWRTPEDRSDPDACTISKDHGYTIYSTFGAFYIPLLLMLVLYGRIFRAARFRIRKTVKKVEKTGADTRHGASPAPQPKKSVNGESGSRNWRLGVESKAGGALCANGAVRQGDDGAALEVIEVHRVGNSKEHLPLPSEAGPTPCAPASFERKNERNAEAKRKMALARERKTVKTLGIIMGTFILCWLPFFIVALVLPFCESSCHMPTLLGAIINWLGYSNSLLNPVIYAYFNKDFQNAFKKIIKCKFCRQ

[5] = biological target: 5-HT2A (Homo sapiens, UniProt P28223); assay: Receptor binding, 5-HT2A
Sequence of 5-HT2A (P28223 whole entry): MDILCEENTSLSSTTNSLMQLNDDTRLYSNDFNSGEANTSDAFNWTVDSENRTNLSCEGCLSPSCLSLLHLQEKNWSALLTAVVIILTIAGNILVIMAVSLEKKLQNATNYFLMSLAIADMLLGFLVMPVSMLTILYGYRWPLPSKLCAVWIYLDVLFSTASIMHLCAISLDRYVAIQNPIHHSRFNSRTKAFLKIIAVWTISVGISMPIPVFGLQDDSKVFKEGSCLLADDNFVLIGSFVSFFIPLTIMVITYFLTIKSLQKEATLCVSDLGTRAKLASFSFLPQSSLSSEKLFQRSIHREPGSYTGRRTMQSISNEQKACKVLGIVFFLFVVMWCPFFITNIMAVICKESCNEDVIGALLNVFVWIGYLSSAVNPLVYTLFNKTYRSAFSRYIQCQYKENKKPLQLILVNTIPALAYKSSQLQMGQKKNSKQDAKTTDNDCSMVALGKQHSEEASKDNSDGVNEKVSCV

[6] = test system: 5-HT1A, 5-HTT, 5-HT2A; assay: Electrophysiological studies; details: first 5-HT1A is presynaptic

## Cc1nnc(-c2cc3c(OC[C@@H](O)CN4CCC(c5ccc(Cl)c(Cl)c5)CC4)cccc3o2)o1 [SON-117, (S)-1-(4-(3,4-dichlorophenyl)piperidino)-3-(2-(5-methyl-1,3,4-oxadiazol-2-yl)benzo(b)furan-4-yloxy)-2-propanol hydrochloride]
[1]; CMS model
  dose at which rapid-onset normalization of sucrose intake was observed (as low as): 1 µg/kg
[1]; SON-117 0.001 mg/kg
  effect on sucrose intake one week after cessation of treatments: maintained
[1]; SON-117 0.001 and 0.01 mg/kg IP (only these doses significant vs Week 0)
  time at which increase of sucrose consumption in stressed animals reached significance vs Week 0: first week
[1]; SON-117 0.001 and 1.0 mg/kg
  onset of action: enhancement of sucrose intakes reached statistical significance: first week
[1]; SON-117 1 mg/kg
  effect on sucrose intake one week after cessation of treatments: abolished
[1]; SON-117 0.01 and 0.1 mg/kg
  effectiveness in the CMS model: less effective than imipramine
[1]; SON-117 most active doses (0.001 and 1.0 mg/kg)
  magnitude of action in the CMS model: comparable to that of imipramine
[1]; once daily IP for five weeks, imipramine 10 mg/kg, SON-117 all doses (0.001, 0.01, 0.1 and 1 mg/kg)
  sucrose intake in control animals, compared to vehicle: no significant effect
[1]; once daily IP for five weeks, imipramine 10 mg/kg, SON-117 all four doses (0.001-1 mg/kg), hydrochloride
  sucrose consumption in stressed animals, compared to vehicle: significant effects; also recorded: enhanced
[2]; SON-117 0.001, 0.01 and 0.1 mg/kg, one week after withdrawal
  recognition index in stressed animals: restored
[2]; SON-117 1 mg/kg, stressed animals
  effect against the CMS-induced deficit in the novel object recognition: ineffective
[2]; SON-117 all doses (0.001-1 mg/kg IP), one week after withdrawal
  recognition index in control animals: no significant effect
[3]; SON-117
  effect of discontinuation of dosing on sleep EEG parameters, including REM sleep: no evidence
[3]; SON-117 1 mg, day 1 and day 14, second third of the night, hydrochloride
  slow wave sleep (SWS): could increase; also recorded: increased
[3]; SON-117 repeated dosing, two highest dosages (3 mg, 7.5 mg), particularly 7.5 mg, hydrochloride
  REM sleep, REM density/activity: could have REM sleep promoting effect; also recorded: increased
[3]; SON-117 three doses tested (1, 3, 7.5 mg)
  sleep continuity and sleep architecture parameters: largely not influenced
[4]
  affinity, 5-HT1A receptor binding: high affinity
[5]
  affinity, 5-HT2A receptor binding: high affinity
[6]
  order of effects in electrophysiological studies: 5-HT1A>5-HTT>5-HT2A>postsynaptic 5-HT1A
